Data: paper PMC6421522, “Designing Dual Inhibitors of Anaplastic Lymphoma Kinase (ALK) and Bromodomain-4 (BRD4) by Tuning Kinase Selectivity” (Journal of Medicinal Chemistry, 2019)

Key:
Assay in all cases: KINOMEscan scanEDGE
Type in all cases: binding
Settings in all cases: read-out: % Control (1µM)
PRKCE = biological target: T1, PRKCE (Homo sapiens, UniProt Q02156)
T1 construct: purchased DiscoveRx KINOMEscan (scanEDGE); Thermo Fisher SelectScreen (Z'-LYTE) for PLK-1
Procedure: (§1) Compound X was assayed at 1 μM in the DiscoveRx KINOMEscan (scanEDGE) assay platform. The results for single-concentration binding interactions are reported as “%Ctrl” (DMSO = 100%Ctrl), where lower numbers indicate stronger hits.

GSK3B = biological target: T2, GSK3B (Homo sapiens, UniProt P49841)
T2 construct: purchased DiscoveRx KINOMEscan (scanEDGE); Thermo Fisher SelectScreen (Z'-LYTE) for PLK-1
T2 sequence (P49841 whole entry): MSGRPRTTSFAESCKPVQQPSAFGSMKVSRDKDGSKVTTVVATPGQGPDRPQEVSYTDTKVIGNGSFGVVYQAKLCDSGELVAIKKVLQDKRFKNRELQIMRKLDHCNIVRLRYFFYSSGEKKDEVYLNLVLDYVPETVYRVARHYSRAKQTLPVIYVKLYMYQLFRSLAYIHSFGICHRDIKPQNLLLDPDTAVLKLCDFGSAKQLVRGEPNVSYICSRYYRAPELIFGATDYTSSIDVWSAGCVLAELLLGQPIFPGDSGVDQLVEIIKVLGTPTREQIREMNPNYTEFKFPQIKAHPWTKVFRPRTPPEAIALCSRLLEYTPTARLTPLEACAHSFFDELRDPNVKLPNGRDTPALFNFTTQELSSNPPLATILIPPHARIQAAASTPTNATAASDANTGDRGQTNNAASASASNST
Procedure: as §1

ABL1-phosphorylated = biological target: T3, ABL1-phosphorylated (Homo sapiens, UniProt P00519)
T3 construct: purchased DiscoveRx KINOMEscan (scanEDGE); Thermo Fisher SelectScreen (Z'-LYTE) for PLK-1
Procedure: as §1

AURKA = biological target: T4, AURKA (Homo sapiens, UniProt O14965)
T4 construct: purchased DiscoveRx KINOMEscan (scanEDGE); Thermo Fisher SelectScreen (Z'-LYTE) for PLK-1
T4 sequence (O14965 whole entry): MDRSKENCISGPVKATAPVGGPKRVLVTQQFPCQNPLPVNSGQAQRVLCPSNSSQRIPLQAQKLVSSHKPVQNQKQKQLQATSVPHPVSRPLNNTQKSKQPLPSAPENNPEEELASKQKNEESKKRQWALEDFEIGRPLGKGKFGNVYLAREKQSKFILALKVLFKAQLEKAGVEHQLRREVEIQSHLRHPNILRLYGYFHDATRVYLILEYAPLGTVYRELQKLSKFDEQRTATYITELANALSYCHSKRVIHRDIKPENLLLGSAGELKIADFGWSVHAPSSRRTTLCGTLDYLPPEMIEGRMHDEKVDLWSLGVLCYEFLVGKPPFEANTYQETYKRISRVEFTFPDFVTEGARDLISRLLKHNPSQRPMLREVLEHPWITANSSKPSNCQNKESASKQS
Procedure: as §1

PIM1 = biological target: T5, PIM1 (Homo sapiens, UniProt P11309)
T5 construct: purchased DiscoveRx KINOMEscan (scanEDGE); Thermo Fisher SelectScreen (Z'-LYTE) for PLK-1
Procedure: as §1

IGF1R = biological target: T6, IGF1R (Homo sapiens, UniProt P08069)
T6 construct: purchased DiscoveRx KINOMEscan (scanEDGE); Thermo Fisher SelectScreen (Z'-LYTE) for PLK-1
Procedure: as §1

ROCK2 = biological target: T7, ROCK2 (Homo sapiens, UniProt O75116)
T7 construct: purchased DiscoveRx KINOMEscan (scanEDGE); Thermo Fisher SelectScreen (Z'-LYTE) for PLK-1
Procedure: as §1

PDPK1 = biological target: T8, PDPK1 (Homo sapiens, UniProt O15530)
T8 construct: purchased DiscoveRx KINOMEscan (scanEDGE); Thermo Fisher SelectScreen (Z'-LYTE) for PLK-1
Procedure: as §1

PLK4 = biological target: T9, PLK4 (Homo sapiens, UniProt O00444)
T9 construct: purchased DiscoveRx KINOMEscan (scanEDGE); Thermo Fisher SelectScreen (Z'-LYTE) for PLK-1
Procedure: as §1

LKB1 = biological target: T10, LKB1 (Homo sapiens, UniProt Q15831)
T10 construct: purchased DiscoveRx KINOMEscan (scanEDGE); Thermo Fisher SelectScreen (Z'-LYTE) for PLK-1
Procedure: as §1

[1] = biological target: T11, JAK2(JH1domain-catalytic) (Homo sapiens, UniProt O60674)
T11 construct: JAK2(JH1domain-catalytic); purchased DiscoveRx KINOMEscan (scanEDGE); Thermo Fisher SelectScreen (Z'-LYTE) for PLK-1
Procedure: as §1

PCTK1 = biological target: T12, PCTK1 (Homo sapiens, UniProt Q00536)
T12 construct: purchased DiscoveRx KINOMEscan (scanEDGE); Thermo Fisher SelectScreen (Z'-LYTE) for PLK-1
Procedure: as §1

MKNK2 = biological target: T13, MKNK2 (Homo sapiens, UniProt Q9HBH9)
T13 construct: purchased DiscoveRx KINOMEscan (scanEDGE); Thermo Fisher SelectScreen (Z'-LYTE) for PLK-1
Procedure: as §1

PIK3CA = biological target: T14, PIK3CA (Homo sapiens, UniProt P42336)
T14 construct: purchased DiscoveRx KINOMEscan (scanEDGE); Thermo Fisher SelectScreen (Z'-LYTE) for PLK-1
Procedure: as §1

JNK1 = biological target: T15, JNK1 (Homo sapiens, UniProt P45983)
T15 construct: purchased DiscoveRx KINOMEscan (scanEDGE); Thermo Fisher SelectScreen (Z'-LYTE) for PLK-1
Procedure: as §1

MKNK1 = biological target: T16, MKNK1 (Homo sapiens, UniProt Q9BUB5)
T16 construct: purchased DiscoveRx KINOMEscan (scanEDGE); Thermo Fisher SelectScreen (Z'-LYTE) for PLK-1
Procedure: as §1

MARK3 = biological target: T17, MARK3 (Homo sapiens, UniProt P27448)
T17 construct: purchased DiscoveRx KINOMEscan (scanEDGE); Thermo Fisher SelectScreen (Z'-LYTE) for PLK-1
Procedure: as §1

JNK2 = biological target: T18, JNK2 (Homo sapiens, UniProt P45984)
T18 construct: purchased DiscoveRx (DiscoverX)
T18 sequence (P45984 whole entry): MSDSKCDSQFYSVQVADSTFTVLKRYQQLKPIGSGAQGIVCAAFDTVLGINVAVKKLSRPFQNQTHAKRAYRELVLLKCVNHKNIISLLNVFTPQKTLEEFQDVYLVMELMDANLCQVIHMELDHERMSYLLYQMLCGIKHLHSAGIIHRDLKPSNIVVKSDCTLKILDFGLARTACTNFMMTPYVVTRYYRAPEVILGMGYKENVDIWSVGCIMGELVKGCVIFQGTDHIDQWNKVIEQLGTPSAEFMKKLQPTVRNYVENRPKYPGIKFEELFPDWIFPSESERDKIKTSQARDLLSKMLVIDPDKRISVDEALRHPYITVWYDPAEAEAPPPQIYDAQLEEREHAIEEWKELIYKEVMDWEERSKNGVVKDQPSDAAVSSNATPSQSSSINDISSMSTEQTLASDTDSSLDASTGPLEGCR
Procedure: as §1

RET = biological target: T19, RET (Homo sapiens, UniProt P07949)
T19 construct: purchased DiscoveRx KINOMEscan (scanEDGE); Thermo Fisher SelectScreen (Z'-LYTE) for PLK-1
Procedure: as §1

JNK3 = biological target: T20, JNK3 (Homo sapiens, UniProt P53779)
T20 construct: purchased DiscoveRx (DiscoverX)
Procedure: as §1

ERBB2 = biological target: T21, ERBB2 (Homo sapiens, UniProt P04626)
T21 construct: purchased DiscoveRx KINOMEscan (scanEDGE); Thermo Fisher SelectScreen (Z'-LYTE) for PLK-1
Procedure: as §1

AKT1 = biological target: T22, AKT1 (Homo sapiens, UniProt P31749)
T22 construct: purchased DiscoveRx KINOMEscan (scanEDGE); Thermo Fisher SelectScreen (Z'-LYTE) for PLK-1
Procedure: as §1

SRC = biological target: T23, SRC (Homo sapiens, UniProt P12931)
T23 construct: purchased DiscoveRx KINOMEscan (scanEDGE); Thermo Fisher SelectScreen (Z'-LYTE) for PLK-1
Procedure: as §1

EGFR = biological target: T24, EGFR (Homo sapiens, UniProt P00533)
T24 construct: purchased DiscoveRx KINOMEscan (scanEDGE); Thermo Fisher SelectScreen (Z'-LYTE) for PLK-1
Procedure: as §1

PDGFRA = biological target: T25, PDGFRA (Homo sapiens, UniProt P16234)
T25 construct: purchased DiscoveRx KINOMEscan (scanEDGE); Thermo Fisher SelectScreen (Z'-LYTE) for PLK-1
Procedure: as §1

PDGFRB = biological target: T26, PDGFRB (Homo sapiens, UniProt P09619)
T26 construct: purchased DiscoveRx KINOMEscan (scanEDGE); Thermo Fisher SelectScreen (Z'-LYTE) for PLK-1
Procedure: as §1

CSNK1G2 = biological target: T27, CSNK1G2 (Homo sapiens, UniProt P78368)
T27 construct: purchased DiscoveRx KINOMEscan (scanEDGE); Thermo Fisher SelectScreen (Z'-LYTE) for PLK-1
Procedure: as §1

ERBB4 = biological target: T28, ERBB4 (Homo sapiens, UniProt Q15303)
T28 construct: purchased DiscoveRx KINOMEscan (scanEDGE); Thermo Fisher SelectScreen (Z'-LYTE) for PLK-1
T28 sequence (Q15303 26-1308): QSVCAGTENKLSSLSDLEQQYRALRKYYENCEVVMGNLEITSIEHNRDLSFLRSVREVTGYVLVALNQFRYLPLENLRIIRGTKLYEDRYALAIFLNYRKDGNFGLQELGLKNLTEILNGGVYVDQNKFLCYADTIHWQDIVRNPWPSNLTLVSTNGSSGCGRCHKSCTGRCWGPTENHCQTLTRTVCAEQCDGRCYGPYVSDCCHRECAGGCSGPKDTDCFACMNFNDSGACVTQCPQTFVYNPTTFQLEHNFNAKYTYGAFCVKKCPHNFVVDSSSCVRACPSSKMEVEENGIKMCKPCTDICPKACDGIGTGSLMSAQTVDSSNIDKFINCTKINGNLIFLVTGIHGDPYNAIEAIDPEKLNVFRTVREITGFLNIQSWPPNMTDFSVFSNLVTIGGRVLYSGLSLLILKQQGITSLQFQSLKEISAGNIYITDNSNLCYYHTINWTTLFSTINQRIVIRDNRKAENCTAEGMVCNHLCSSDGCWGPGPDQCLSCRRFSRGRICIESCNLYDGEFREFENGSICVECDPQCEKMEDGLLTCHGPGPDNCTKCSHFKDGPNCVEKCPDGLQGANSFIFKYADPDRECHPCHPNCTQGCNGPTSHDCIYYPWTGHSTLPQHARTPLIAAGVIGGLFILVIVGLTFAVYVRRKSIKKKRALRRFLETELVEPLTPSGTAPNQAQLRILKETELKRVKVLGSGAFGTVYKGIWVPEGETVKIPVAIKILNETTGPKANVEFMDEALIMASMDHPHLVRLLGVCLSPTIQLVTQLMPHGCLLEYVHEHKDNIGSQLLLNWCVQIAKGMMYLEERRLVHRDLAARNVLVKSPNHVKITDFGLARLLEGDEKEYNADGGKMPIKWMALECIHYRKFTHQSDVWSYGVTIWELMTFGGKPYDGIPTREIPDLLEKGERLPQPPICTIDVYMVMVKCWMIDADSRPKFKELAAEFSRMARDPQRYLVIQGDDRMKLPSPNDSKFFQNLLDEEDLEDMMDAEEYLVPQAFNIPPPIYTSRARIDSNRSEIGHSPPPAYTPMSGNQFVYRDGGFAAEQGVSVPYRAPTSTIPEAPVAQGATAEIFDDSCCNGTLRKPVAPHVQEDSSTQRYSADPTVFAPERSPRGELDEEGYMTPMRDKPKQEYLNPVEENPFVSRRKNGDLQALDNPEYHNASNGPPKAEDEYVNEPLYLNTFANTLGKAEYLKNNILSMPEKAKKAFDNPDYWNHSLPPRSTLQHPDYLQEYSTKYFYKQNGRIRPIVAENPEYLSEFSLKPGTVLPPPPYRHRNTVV
Procedure: as §1

IKK-beta = biological target: T29, IKK-beta (Homo sapiens, UniProt O14920)
T29 construct: purchased DiscoveRx KINOMEscan (scanEDGE); Thermo Fisher SelectScreen (Z'-LYTE) for PLK-1
Procedure: as §1

BRAF(V600E) = biological target: T30, BRAF(V600E) (Homo sapiens, UniProt P15056, V600E)
T30 construct: purchased DiscoveRx KINOMEscan (scanEDGE); Thermo Fisher SelectScreen (Z'-LYTE) for PLK-1
Procedure: as §1

EGFR(L858R) = biological target: T31, EGFR(L858R) (Homo sapiens, UniProt P00533, L858R)
T31 construct: purchased DiscoveRx KINOMEscan (scanEDGE); Thermo Fisher SelectScreen (Z'-LYTE) for PLK-1
Procedure: as §1

[2] = biological target: T32, ABL1(E255K)-phosphorylated (Homo sapiens, UniProt P00519, E255K)
T32 construct: purchased DiscoveRx KINOMEscan (scanEDGE); Thermo Fisher SelectScreen (Z'-LYTE) for PLK-1
Procedure: as §1

TIE2 = biological target: T33, TIE2 (Homo sapiens, UniProt Q02763)
T33 construct: purchased DiscoveRx KINOMEscan (scanEDGE); Thermo Fisher SelectScreen (Z'-LYTE) for PLK-1
Procedure: as §1

[3] = biological target: T34, ABL1(T315I)-phosphorylated (Homo sapiens, UniProt P00519, T315I)
T34 construct: purchased DiscoveRx KINOMEscan (scanEDGE); Thermo Fisher SelectScreen (Z'-LYTE) for PLK-1
Procedure: as §1

PAK2 = biological target: T35, PAK2 (Homo sapiens, UniProt Q13177)
T35 construct: purchased DiscoveRx KINOMEscan (scanEDGE); Thermo Fisher SelectScreen (Z'-LYTE) for PLK-1
Procedure: as §1

ACVR1B = biological target: T36, ACVR1B (Homo sapiens, UniProt P36896)
T36 construct: purchased DiscoveRx KINOMEscan (scanEDGE); Thermo Fisher SelectScreen (Z'-LYTE) for PLK-1
T36 sequence (P36896 24-505): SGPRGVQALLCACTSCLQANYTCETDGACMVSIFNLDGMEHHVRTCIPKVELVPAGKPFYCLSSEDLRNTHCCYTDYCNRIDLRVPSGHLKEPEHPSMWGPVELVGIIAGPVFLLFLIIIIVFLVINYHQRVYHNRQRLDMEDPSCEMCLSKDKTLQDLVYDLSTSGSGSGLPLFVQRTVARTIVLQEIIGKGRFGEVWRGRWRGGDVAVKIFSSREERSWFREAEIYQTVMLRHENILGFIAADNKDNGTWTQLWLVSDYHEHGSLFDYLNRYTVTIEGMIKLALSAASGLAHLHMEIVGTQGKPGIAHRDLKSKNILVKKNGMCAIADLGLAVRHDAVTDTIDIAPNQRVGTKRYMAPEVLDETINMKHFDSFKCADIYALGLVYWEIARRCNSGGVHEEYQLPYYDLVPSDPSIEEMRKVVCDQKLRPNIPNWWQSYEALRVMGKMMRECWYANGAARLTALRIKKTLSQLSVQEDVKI
Procedure: as §1

RAF1 = biological target: T37, RAF1 (Homo sapiens, UniProt P04049)
T37 construct: purchased DiscoveRx KINOMEscan (scanEDGE); Thermo Fisher SelectScreen (Z'-LYTE) for PLK-1
T37 sequence (P04049 whole entry): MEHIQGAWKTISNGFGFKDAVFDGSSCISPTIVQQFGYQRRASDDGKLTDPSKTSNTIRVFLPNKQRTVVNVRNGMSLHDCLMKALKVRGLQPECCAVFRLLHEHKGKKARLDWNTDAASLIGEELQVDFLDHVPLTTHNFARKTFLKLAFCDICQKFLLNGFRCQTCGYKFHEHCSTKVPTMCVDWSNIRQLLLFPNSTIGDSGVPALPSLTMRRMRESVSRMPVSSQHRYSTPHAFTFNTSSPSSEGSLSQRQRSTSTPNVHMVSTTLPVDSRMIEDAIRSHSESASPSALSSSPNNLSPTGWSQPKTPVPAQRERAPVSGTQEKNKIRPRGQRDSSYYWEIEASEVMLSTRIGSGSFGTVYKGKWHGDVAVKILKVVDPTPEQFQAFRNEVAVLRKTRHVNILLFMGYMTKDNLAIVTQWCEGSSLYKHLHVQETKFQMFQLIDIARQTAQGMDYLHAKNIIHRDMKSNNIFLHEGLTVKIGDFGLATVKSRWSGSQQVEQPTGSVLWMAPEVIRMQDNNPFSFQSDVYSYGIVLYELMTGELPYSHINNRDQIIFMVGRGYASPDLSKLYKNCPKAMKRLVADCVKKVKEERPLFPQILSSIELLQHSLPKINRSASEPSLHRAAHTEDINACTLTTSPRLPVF
Procedure: as §1

VEGFR2 = biological target: T38, VEGFR2 (Homo sapiens, UniProt P35968)
T38 construct: purchased DiscoveRx (DiscoverX)
Procedure: as §1

CDK7 = biological target: T39, CDK7 (Homo sapiens, UniProt P50613)
T39 construct: purchased DiscoveRx KINOMEscan (scanEDGE); Thermo Fisher SelectScreen (Z'-LYTE) for PLK-1
Procedure: as §1

[4] = biological target: T40, RSK2(Kin.Dom.1-N-terminal) (Homo sapiens, UniProt P51812)
T40 construct: RSK2(Kin.Dom.1-N-terminal); purchased DiscoveRx KINOMEscan (scanEDGE); Thermo Fisher SelectScreen (Z'-LYTE) for PLK-1
Procedure: as §1

CDK9 = biological target: T41, CDK9 (Homo sapiens, UniProt P50750)
T41 construct: purchased DiscoveRx KINOMEscan (scanEDGE); Thermo Fisher SelectScreen (Z'-LYTE) for PLK-1
T41 sequence (P50750 whole entry): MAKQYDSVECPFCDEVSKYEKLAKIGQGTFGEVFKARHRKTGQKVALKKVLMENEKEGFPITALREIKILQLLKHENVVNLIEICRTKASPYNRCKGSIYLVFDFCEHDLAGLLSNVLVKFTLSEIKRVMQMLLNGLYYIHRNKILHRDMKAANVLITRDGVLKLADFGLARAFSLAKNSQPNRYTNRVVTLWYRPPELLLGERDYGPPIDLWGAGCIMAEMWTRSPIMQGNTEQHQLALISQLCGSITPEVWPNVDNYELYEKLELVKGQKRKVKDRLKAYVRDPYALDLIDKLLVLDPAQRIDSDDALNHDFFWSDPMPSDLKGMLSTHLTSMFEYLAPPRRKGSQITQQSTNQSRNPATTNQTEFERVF
Procedure: as §1

T1 sequence (Q02156 whole entry): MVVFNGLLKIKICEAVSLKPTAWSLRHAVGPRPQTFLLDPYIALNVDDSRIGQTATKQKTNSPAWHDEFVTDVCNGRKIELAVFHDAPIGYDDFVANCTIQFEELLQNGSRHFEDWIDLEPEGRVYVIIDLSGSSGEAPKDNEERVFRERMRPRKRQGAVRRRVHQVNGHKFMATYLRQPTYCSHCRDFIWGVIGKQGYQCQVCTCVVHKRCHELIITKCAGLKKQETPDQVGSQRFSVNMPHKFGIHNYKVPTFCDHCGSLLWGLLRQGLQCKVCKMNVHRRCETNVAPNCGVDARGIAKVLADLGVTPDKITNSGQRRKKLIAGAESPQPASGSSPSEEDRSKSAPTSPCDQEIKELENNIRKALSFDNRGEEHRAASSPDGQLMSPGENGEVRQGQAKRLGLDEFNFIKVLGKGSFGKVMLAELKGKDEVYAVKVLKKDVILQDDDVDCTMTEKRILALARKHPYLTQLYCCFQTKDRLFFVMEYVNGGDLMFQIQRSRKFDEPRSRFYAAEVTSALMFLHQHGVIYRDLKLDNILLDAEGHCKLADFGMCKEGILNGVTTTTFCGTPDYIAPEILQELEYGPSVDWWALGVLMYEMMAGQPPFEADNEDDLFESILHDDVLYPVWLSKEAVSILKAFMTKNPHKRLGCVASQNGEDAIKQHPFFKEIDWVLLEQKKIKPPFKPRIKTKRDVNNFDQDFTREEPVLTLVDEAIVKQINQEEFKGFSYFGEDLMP

SMILES: CCOc1cc(C2CCN(C)CC2)ccc1Nc1ncc2c(n1)N(Cc1cc(C)cs1)[C@H](CC)C(=O)N2C [16k, (R)-2-((2-Ethoxy-4-(1-methylpiperidin-4-yl)phenyl)amino)-7-ethyl-5-methyl-8-((4-methylthiophen-2-yl)methyl)-7,8-dihydropteridin-6(5H)-one]
- remaining binding at 1 µM (PRKCE): 100%
- remaining binding at 1 µM (GSK3B): 82%
- remaining binding at 1 µM (ABL1-phosphorylated): 100%
- remaining binding at 1 µM (AURKA): 99%
- remaining binding at 1 µM (PIM1): 97%
- remaining binding at 1 µM (IGF1R): 77%
- remaining binding at 1 µM (ROCK2): 100%
- remaining binding at 1 µM (PDPK1): 98%
- remaining binding at 1 µM (PLK4): 100%
- remaining binding at 1 µM (LKB1): 82%
- remaining binding at 1 µM [1]: 83%
- remaining binding at 1 µM (PCTK1): 95%
- remaining binding at 1 µM (MKNK2): 60%
- remaining binding at 1 µM (PIK3CA): 96%
- remaining binding at 1 µM (JNK1): 64%
- remaining binding at 1 µM (MKNK1): 100%
- remaining binding at 1 µM (MARK3): 100%
- remaining binding at 1 µM (JNK2): 44%
- remaining binding at 1 µM (RET): 99%
- remaining binding at 1 µM (JNK3): 39%
- remaining binding at 1 µM (ERBB2): 100%
- remaining binding at 1 µM (AKT1): 96%
- remaining binding at 1 µM (SRC): 100%
- remaining binding at 1 µM (EGFR): 86%
- remaining binding at 1 µM (PDGFRA): 96%
- remaining binding at 1 µM (PDGFRB): 100%
- remaining binding at 1 µM (CSNK1G2): 100%
- remaining binding at 1 µM (ERBB4): 93%
- remaining binding at 1 µM (IKK-beta): 100%
- remaining binding at 1 µM (BRAF(V600E)): 98%
- remaining binding at 1 µM (EGFR(L858R)): 69%
- remaining binding at 1 µM [2]: 100%
- remaining binding at 1 µM (TIE2): 99%
- remaining binding at 1 µM [3]: 71%
- remaining binding at 1 µM (PAK2): 100%
- remaining binding at 1 µM (ACVR1B): 85%
- remaining binding at 1 µM (RAF1): 100%
- remaining binding at 1 µM (VEGFR2): 87%
- remaining binding at 1 µM (CDK7): 88%
- remaining binding at 1 µM [4]: 59%
- remaining binding at 1 µM (CDK9): 100%
